Test results reported in ChEMBL document CHEMBL2074275, “Characterization of inducible nature of MRP3 in rat liver” (Am J Physiol Gastrointest Liver Physiol, 2000).

What was measured:
Format in all cases: functional, organism-based, Sprague-Dawley
[1] = molecular target: ATP-binding cassette sub-family C member 6 (Rattus norvegicus, UniProt O88269); test: (§1) TP_TRANSPORTER: Northern blot in vivo SD rat, liver
[2] = molecular target: T1, Hepatic sodium/bile acid cotransporter (Rattus norvegicus, UniProt P26435); test: as §1
T1 sequence (P26435 whole entry): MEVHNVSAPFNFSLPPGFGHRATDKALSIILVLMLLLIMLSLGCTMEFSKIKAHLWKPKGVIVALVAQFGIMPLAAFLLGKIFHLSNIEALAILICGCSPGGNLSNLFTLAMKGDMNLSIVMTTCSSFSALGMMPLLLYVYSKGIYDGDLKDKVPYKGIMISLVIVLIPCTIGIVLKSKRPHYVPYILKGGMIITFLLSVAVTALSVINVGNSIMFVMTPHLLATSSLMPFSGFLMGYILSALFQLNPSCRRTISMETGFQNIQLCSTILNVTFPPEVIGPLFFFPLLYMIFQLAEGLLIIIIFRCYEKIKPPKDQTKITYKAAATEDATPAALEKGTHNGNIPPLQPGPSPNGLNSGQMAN

[3] = molecular target: T2, ATP-binding cassette sub-family C member 3 (Rattus norvegicus, UniProt O88563); test: as §1
T2 sequence (O88563 whole entry): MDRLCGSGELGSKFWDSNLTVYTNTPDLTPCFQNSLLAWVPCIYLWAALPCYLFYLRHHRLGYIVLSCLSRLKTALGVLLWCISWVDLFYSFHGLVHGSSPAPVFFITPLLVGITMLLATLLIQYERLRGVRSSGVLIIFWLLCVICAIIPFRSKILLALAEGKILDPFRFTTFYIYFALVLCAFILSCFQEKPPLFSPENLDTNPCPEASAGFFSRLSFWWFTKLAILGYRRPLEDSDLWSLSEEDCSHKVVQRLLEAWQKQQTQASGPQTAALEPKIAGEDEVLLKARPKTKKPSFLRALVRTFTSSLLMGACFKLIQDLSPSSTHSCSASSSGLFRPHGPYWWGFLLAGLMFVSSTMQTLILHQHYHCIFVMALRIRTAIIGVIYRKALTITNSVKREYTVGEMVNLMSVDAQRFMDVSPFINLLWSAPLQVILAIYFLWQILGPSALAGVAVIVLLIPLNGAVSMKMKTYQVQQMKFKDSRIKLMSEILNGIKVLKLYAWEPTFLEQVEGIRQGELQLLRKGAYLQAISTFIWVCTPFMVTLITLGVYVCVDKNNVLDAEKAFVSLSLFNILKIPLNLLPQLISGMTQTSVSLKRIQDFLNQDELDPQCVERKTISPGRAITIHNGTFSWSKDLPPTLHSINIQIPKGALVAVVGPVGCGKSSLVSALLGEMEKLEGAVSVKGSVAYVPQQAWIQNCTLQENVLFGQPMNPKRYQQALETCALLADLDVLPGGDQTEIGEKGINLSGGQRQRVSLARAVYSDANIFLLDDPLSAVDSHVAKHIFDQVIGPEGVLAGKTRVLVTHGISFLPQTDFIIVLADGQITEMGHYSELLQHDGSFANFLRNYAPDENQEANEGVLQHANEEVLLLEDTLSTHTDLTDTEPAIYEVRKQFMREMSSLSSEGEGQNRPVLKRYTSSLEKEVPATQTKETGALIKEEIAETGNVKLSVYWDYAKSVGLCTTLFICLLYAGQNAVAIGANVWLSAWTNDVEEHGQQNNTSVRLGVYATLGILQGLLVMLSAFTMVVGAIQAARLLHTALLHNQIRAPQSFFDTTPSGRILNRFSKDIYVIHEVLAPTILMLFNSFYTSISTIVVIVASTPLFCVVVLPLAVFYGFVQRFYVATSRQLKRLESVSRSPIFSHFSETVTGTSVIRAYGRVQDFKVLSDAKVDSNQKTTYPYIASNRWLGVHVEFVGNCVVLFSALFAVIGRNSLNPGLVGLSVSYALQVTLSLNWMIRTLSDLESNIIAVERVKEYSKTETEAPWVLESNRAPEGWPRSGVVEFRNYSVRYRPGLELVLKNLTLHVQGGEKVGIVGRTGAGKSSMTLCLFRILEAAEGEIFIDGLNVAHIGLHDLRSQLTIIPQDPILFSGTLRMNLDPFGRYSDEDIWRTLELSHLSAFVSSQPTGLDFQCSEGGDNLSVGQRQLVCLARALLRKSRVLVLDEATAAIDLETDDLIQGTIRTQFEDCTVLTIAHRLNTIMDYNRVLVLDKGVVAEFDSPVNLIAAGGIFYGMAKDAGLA

[4] = molecular target: T2, ATP-binding cassette sub-family C member 3; test: TP_TRANSPORTER: Western in vivo SD rat, liver

Measured: Activity

ATP-binding cassette sub-family C member 6, sequence (O88269 whole entry): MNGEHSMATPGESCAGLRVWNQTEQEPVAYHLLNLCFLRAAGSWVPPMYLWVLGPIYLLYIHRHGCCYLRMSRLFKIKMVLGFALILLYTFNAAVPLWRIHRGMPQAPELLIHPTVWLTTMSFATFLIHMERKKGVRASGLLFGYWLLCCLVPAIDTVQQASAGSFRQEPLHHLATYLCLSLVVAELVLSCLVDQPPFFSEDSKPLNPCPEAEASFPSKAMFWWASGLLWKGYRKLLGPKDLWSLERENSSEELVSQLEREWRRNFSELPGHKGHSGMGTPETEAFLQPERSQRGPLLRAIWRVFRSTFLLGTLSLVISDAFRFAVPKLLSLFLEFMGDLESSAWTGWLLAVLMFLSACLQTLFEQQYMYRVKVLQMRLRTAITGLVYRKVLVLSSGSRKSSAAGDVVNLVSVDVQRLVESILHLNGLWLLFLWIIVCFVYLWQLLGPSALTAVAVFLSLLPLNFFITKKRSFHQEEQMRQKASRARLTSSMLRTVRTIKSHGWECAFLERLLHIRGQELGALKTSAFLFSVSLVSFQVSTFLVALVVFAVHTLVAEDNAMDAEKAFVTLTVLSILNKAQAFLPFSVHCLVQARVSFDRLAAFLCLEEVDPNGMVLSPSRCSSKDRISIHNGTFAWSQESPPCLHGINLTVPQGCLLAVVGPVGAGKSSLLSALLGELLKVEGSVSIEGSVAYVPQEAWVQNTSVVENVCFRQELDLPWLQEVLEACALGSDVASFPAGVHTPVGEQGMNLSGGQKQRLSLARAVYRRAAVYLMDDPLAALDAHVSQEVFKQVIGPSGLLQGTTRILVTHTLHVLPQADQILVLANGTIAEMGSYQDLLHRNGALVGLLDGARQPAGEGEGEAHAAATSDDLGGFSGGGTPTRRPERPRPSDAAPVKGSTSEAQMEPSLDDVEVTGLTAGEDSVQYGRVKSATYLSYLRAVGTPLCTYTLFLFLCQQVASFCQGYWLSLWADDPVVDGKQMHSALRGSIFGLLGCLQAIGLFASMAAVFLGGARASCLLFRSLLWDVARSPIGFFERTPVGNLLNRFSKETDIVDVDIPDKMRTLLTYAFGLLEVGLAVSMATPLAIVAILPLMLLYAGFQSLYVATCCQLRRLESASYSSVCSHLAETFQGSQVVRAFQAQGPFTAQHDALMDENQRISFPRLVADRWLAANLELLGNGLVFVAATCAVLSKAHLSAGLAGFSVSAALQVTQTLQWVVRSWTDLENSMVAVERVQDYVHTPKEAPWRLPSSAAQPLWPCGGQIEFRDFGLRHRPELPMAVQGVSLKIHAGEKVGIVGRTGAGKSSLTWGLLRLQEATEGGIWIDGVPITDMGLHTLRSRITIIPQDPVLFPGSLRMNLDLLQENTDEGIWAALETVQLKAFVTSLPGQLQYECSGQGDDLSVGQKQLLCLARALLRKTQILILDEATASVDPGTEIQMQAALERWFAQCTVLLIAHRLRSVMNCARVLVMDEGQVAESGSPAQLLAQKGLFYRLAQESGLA

O=C=Nc1cccc2ccccc12 [alpha-naphthylisocyanate]
inducer [+]: all assays above

CCC1(c2ccccc2)C(=O)NC(=O)NC1=O [PHENOBARBITAL]
inducer [+]: all assays above
